Assay results taken from US8092816B2, “Insecticidal compositions for control of general household pests” (priority 2004, dated 2012).
Like-named read-outs stand apart in the source and are kept apart here.

Legend:
Format in all cases: in vivo
American cockroach [1] = test: Example 3: American cockroach knockdown and mortality, bifenthrin and imidacloprid
Excerpt: (§1) The following examples further illustrate the present invention, but, of course, should not be construed as in any way limiting its scope. The examples set forth certain biological data illustrating the efficacy of the compositions of the present invention in controlling general household pests. Each example embodies a separate test wherein the pests were randomly selected from a population at a random age. As a result, from example to example, the ages of the pests can be very different. This age difference potentially translates to different baselines for each example. Therefore, data should only be compared within the example and not from example to example due to the differences in age of the pests from example to example. Unless otherwise indicated, all parts, percentages, and the like are by weight. The spray chamber used in the examples was approximately 76 inches tall, 73 inches long and 31 inches deep with an adjustable shelf (approximately 22 inches deep) and a movable spray nozzle. The spray chambers were calibrated to deliver a volume of approximately 1 gallon of liquid per 1000 square feet of area at about 14 pounds per square inch of pressure. A DeVilbiss hand held sprayer (Atomizer model 152) manufactured by DeVilbiss located in Glendale Heights, Ill. was used in testing house flies and mosquitoes. The DeVilbiss was used to apply approximately 3-5 milliliters of product at about 10 pounds per square inch.
(§2) The compositions of the present invention were tested for American cockroach activity in the following manner:
Test compositions made up of TALSTARONE® MULTI-INSECTICIDE and a wettable powder of imidacloprid (MERIT) in distilled water were prepared that provided appropriate rates of application of combinations of bifenthrin and imidacloprid, as well as bifenthrin and imidacloprid alone.
(§3) The spray chamber was then calibrated to deliver the treatment solution at the desired volume and pressure over the desired area on the chamber shelf. Spray chamber shelf height was adjusted to approximately 18 inches from the spray tip. The shelf was then covered with aluminum foil and the center of the shelf from front-to-back and end-to-end was determined. A desired number of 4.0″ sieve circles were marked on the aluminum foil with a permanent marker. The inside of a desired number of PVC rings were coated with a petroleum jelly/mineral oil mixture (1:2 ratio). The PVC rings were place on the sieve circles. 10 male American cockroaches were placed inside each PVC ring. The sprayer was activated and the test compound was applied to each PVC ring interior. American cockroach knockdown and mortality were measured.

American cockroach [2] = test: Example 14: American cockroach knockdown and mortality, bifenthrin and clothianidin
Excerpt: as §1, §2
(§4) Test compositions made up of TALSTARONE® MULTI-INSECTICIDE and a 16% a.i. water dispersible granular of clothianidin in distilled water were prepared that provided appropriate rates of application of combinations of bifenthrin and clothianidin, as well as bifenthrin and clothianidin alone.
as §3

Yellow Fever Mosquito = test system: Yellow Fever Mosquito
Excerpt: as §1
The compositions of the present invention were tested for Yellow Fever Mosquito activity in the following manner:
as §4
A DeVilbiss hand held sprayer was used to deliver the treatment solution at the desired volume and pressure. The Yellow Fever Mosquitoes to be treated were collected and placed in screened 16 oz paper cups. The hand held sprayer was activated and the test compound was applied to each paper cup interior. Yellow Fever Mosquito knockdown and mortality were measured.

Oriental cockroach = test: Example 10: Oriental cockroach knockdown and mortality, bifenthrin and thiamethoxam
Excerpt: as §1
The compositions of the present invention were tested for Oriental cockroach activity in the following manner:
(§5) Test compositions made up of TALSTARONE® MULTI-INSECTICIDE and a water dispersible granular of thiamethoxam (CENTRIC) in distilled water were prepared that provided appropriate rates of application of combinations of bifenthrin and thiamethoxam, as well as bifenthrin and thiamethoxam alone.
as §3, with “Oriental” for “American”

House Fly = test: Example 12: house fly knockdown and mortality, bifenthrin and thiamethoxam (higher thiamethoxam rates)
Excerpt: as §1
The compositions of the present invention were tested for house fly activity in the following manner:
as §5
A DeVilbiss hand held sprayer was used to deliver the treatment solution at the desired volume and pressure. The house flies to be treated were collected and placed in screened 16 oz paper cups. The hand held sprayer was activated and the test compound was applied to each paper cup interior. House fly knockdown and mortality were measured.

[3] = rate of appln. 10 PPM (0.001% by weight)
[4] = rate of appln. 50 PPM (0.005% by weight)

Cc1c(COC(=O)[C@@H]2[C@H](/C=C(\Cl)C(F)(F)F)C2(C)C)cccc1-c1ccccc1 (racemic) [A, 2-methylbiphenyl-3-ylmethyl (Z)-(1RS)-cis-3-(2-chloro-3,3,3-trifluoroprop-1-enyl)-2,2-dimethylcyclopropanecarboxylate]
Knockdown Rate @ 15 minute (American cockroach [1]; 10 PPM, 0.001% by weight): 0%
Knockdown Rate @ 30 minute (American cockroach [1]; 10 PPM, 0.001% by weight): 0%
Mortality Rate @ 60 minutes (American cockroach [1]; 10 PPM, 0.001% by weight): 0%
Mortality Rate @ 120 minutes (American cockroach [1]; 10 PPM, 0.001% by weight): 0%
Mortality Rate @ 4 hours (American cockroach [1]; 10 PPM, 0.001% by weight): 5%
Mortality Rate @ 1 day (American cockroach [1]; 10 PPM, 0.001% by weight): 15%
Mortality Rate @ 2 days (American cockroach [1]; 10 PPM, 0.001% by weight): 25%
Knockdown Rate @ 15 minute (American cockroach [1]; 50 PPM, 0.005% by weight): 0%
Knockdown Rate @ 30 minute (American cockroach [1]; 50 PPM, 0.005% by weight): 0%
Mortality Rate @ 60 minutes (American cockroach [1]; 50 PPM, 0.005% by weight): 5%
Mortality Rate @ 120 minutes (American cockroach [1]; 50 PPM, 0.005% by weight): 5%
Mortality Rate @ 4 hours (American cockroach [1]; 50 PPM, 0.005% by weight): 10%
Mortality Rate @ 1 day (American cockroach [1]; 50 PPM, 0.005% by weight): 65%
Mortality Rate @ 2 days (American cockroach [1]; 50 PPM, 0.005% by weight): 70%
Knockdown Rate @ 10 minute (American cockroach [2]; [3]): 0%
Knockdown Rate @ 15 minute (American cockroach [2]; [3]): 0%
Knockdown Rate @ 30 minute (American cockroach [2]; [3]): 0%
Mortality Rate @ 60 minute (American cockroach [2]; [3]): 0%
Mortality Rate @ 120 minutes (American cockroach [2]; [3]): 0%
Mortality Rate @ 4 hours (American cockroach [2]; [3]): 0%
Mortality Rate @ 1 day (American cockroach [2]; [3]): 10%
Mortality Rate @ 2 days (American cockroach [2]; [3]): 30%
Knockdown Rate @ 10 minute (American cockroach [2]; [4]): 5%
Knockdown Rate @ 15 minute (American cockroach [2]; [4]): 10%
Knockdown Rate @ 30 minute (American cockroach [2]; [4]): 5%
Mortality Rate @ 60 minute (American cockroach [2]; [4]): 0%
Mortality Rate @ 120 minutes (American cockroach [2]; [4]): 0%
Mortality Rate @ 4 hours (American cockroach [2]; [4]): 35%
Mortality Rate @ 1 day (American cockroach [2]; [4]): 40%
Mortality Rate @ 2 days (American cockroach [2]; [4]): 55%
Knockdown Rate @ 15 minute (Yellow Fever Mosquito; [3]): 27%
Knockdown Rate @ 30 minute (Yellow Fever Mosquito; [3]): 97%
Mortality Rate @ 45 minutes (Yellow Fever Mosquito; [3]): 100%
Mortality Rate @ 60 minutes (Yellow Fever Mosquito; [3]): 100%
Mortality Rate @ 120 minutes (Yellow Fever Mosquito; [3]): 100%
Mortality Rate @ 180 minute (Yellow Fever Mosquito; [3]): 100%
Mortality Rate @ 4 hours (Yellow Fever Mosquito; [3]): 100%
Mortality Rate @ 1 day (Yellow Fever Mosquito; [3]): 100%
Knockdown Rate @ 15 minute (Yellow Fever Mosquito; [4]): 90%
Knockdown Rate @ 30 minute (Yellow Fever Mosquito; [4]): 100%
Mortality Rate @ 45 minutes (Yellow Fever Mosquito; [4]): 100%
Mortality Rate @ 60 minutes (Yellow Fever Mosquito; [4]): 100%
Mortality Rate @ 120 minutes (Yellow Fever Mosquito; [4]): 100%
Mortality Rate @ 180 minute (Yellow Fever Mosquito; [4]): 100%
Mortality Rate @ 4 hours (Yellow Fever Mosquito; [4]): 100%
Mortality Rate @ 1 day (Yellow Fever Mosquito; [4]): 100%
Knockdown Rate @ 15 minute (Oriental cockroach; 10 PPM, 0.001% by weight): 0%
Knockdown Rate @ 30 minute (Oriental cockroach; 10 PPM, 0.001% by weight): 0%
Mortality Rate @ 60 minutes (Oriental cockroach; 10 PPM, 0.001% by weight): 0%
Mortality Rate @ 120 minutes (Oriental cockroach; 10 PPM, 0.001% by weight): 0%
Mortality Rate @ 4 hours (Oriental cockroach; 10 PPM, 0.001% by weight): 0%
Mortality Rate @ 1 day (Oriental cockroach; 10 PPM, 0.001% by weight): 0%
Knockdown Rate @ 15 minute (Oriental cockroach; 50 PPM, 0.005% by weight): 0%
Knockdown Rate @ 30 minute (Oriental cockroach; 50 PPM, 0.005% by weight): 0%
Mortality Rate @ 60 minutes (Oriental cockroach; 50 PPM, 0.005% by weight): 0%
Mortality Rate @ 120 minutes (Oriental cockroach; 50 PPM, 0.005% by weight): 0%
Mortality Rate @ 4 hours (Oriental cockroach; 50 PPM, 0.005% by weight): 0%
Mortality Rate @ 1 day (Oriental cockroach; 50 PPM, 0.005% by weight): 45%
Knockdown Rate @ 15 minute (House Fly; 10 PPM, 0.001% by weight): 0%
Knockdown Rate @ 30 minute (House Fly; 10 PPM, 0.001% by weight): 0%
Knockdown Rate @ 45 minutes (House Fly; 10 PPM, 0.001% by weight): 17%
Knockdown Rate @ 60 minutes (House Fly; 10 PPM, 0.001% by weight): 40%
Knockdown Rate @ 120 minutes (House Fly; 10 PPM, 0.001% by weight): 63%
Knockdown Rate @ 4 hours (House Fly; 10 PPM, 0.001% by weight): 50%
Mortality Rate @ 1 day (House Fly; 10 PPM, 0.001% by weight): 30%
Knockdown Rate @ 15 minute (House Fly; 50 PPM, 0.005% by weight): 0%
Knockdown Rate @ 30 minute (House Fly; 50 PPM, 0.005% by weight): 78%
Knockdown Rate @ 45 minutes (House Fly; 50 PPM, 0.005% by weight): 97%
Knockdown Rate @ 60 minutes (House Fly; 50 PPM, 0.005% by weight): 97%
Knockdown Rate @ 120 minutes (House Fly; 50 PPM, 0.005% by weight): 97%
Knockdown Rate @ 4 hours (House Fly; 50 PPM, 0.005% by weight): 97%
Mortality Rate @ 1 day (House Fly; 50 PPM, 0.005% by weight): 97%
